Data on 26 compounds can be found in PubChem BioAssay AID330 (DTP/NCI, 2004).

The experiment concerns P388 leukemia ip, CD2F1 mice, survival T/C. Nature of the experiment: NCI In Vivo Anticancer Drug Screen. Data for tumor model P388 Leukemia (intraperitoneal) in CD2F1 (CDF1) mice. As to conditions: endpoint: median survival time, higher = longer survival. A digest of the protocol: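 Mice carrying the transplanted tumor received test compound or vehicle. Survival was recorded in each group, and the value is the treated-group measurement divided by that of the vehicle-treated control group.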

Where [1] appears, read: dose: 50.0 mg/kg/injection, schedule: Q01DX009 (ip), vehicle: saline.
[2] abbreviates: dose: 50.0 mg/kg/injection, schedule: Q01DX009 (ip), vehicle: Klucel (hydroxypropylcellulose) (HPC).
The mark [3] stands for this setting: dose: 100.0 mg/kg/injection, schedule: Q01DX009 (ip), vehicle: Klucel (hydroxypropylcellulose) (HPC).
[4] abbreviates: dose: 200.0 mg/kg/injection, schedule: Q01DX009 (ip), vehicle: Klucel (hydroxypropylcellulose) (HPC).
[5] abbreviates: dose: 100.0 mg/kg/injection, schedule: Q01DX009 (ip), vehicle: saline.
Where [6] appears, read: dose: 200.0 mg/kg/injection, schedule: Q01DX009 (ip), vehicle: saline.
The mark [7] stands for this setting: dose: 60.0 mg/kg/injection, schedule: Q01DX005 (ip), vehicle: saline with Tween-80.
[8] abbreviates: dose: 120.0 mg/kg/injection, schedule: Q01DX005 (ip), vehicle: saline with Tween-80.
Setting [9] is: dose: 240.0 mg/kg/injection, schedule: Q01DX005 (ip), vehicle: saline with Tween-80.
The mark [10] stands for this setting: dose: 25.0 mg/kg/injection, schedule: Q01DX005 (ip), vehicle: saline.
Setting [11] is: dose: 50.0 mg/kg/injection, schedule: Q01DX005 (ip), vehicle: saline.
[12] abbreviates: dose: 50.0 mg/kg/injection, schedule: Q01DX005 (ip), vehicle: Klucel (hydroxypropylcellulose) (HPC).
Where [13] appears, read: dose: 100.0 mg/kg/injection, schedule: Q01DX005 (ip), vehicle: Klucel (hydroxypropylcellulose) (HPC).
Setting [14] is: dose: 60.0 mg/kg/injection, schedule: Q01DX005 (ip), vehicle: Klucel (hydroxypropylcellulose) (HPC).
Where [15] appears, read: dose: 120.0 mg/kg/injection, schedule: Q01DX005 (ip), vehicle: Klucel (hydroxypropylcellulose) (HPC).
Setting [16] is: dose: 100.0 mg/kg/injection, schedule: Q01DX009 (ip), vehicle: saline with Tween-80.
Setting [17] is: dose: 240.0 mg/kg/injection, schedule: Q01DX005 (ip), vehicle: Klucel (hydroxypropylcellulose) (HPC).

“And” between values parts separate entries of the source, which are not always exact repeats. Equal values may be shown once. Where a name gives a salt, the structure may show the parent alone. Inconclusive results and toxic doses are left out. Peptide text beside a SMILES is read from it. * marks the point of attachment. Tfa = O=C(C(F)(F)F)*

As to `CCCCCCCCCCCCCCCC[N+](C)(C)CCN`, the T/C reads like this: (dose: 12.5 mg/kg/injection, schedule: Q01DX009 (ip), vehicle: saline) 93 % of control; (dose: 25.0 mg/kg/injection, schedule: Q01DX009 (ip), vehicle: saline) 99 % of control; under setting [1], 106 % of control.

Consider `O=C(NC(=S)Nc1ccccc1)c1ccccc1`, for which the T/C is 106 % of control (dose: 9.4 mg/kg/injection, schedule: Q01DX009 (ip), vehicle: Klucel (hydroxypropylcellulose) (HPC)); 101 % of control (dose: 18.75 mg/kg/injection, schedule: Q01DX009 (ip), vehicle: Klucel (hydroxypropylcellulose) (HPC)); 94 % of control (dose: 37.5 mg/kg/injection, schedule: Q01DX009 (ip), vehicle: Klucel (hydroxypropylcellulose) (HPC)); 96 % of control (dose: 75.0 mg/kg/injection, schedule: Q01DX009 (ip), vehicle: Klucel (hydroxypropylcellulose) (HPC)).

Turning to `O=C1Nc2ccc(Cl)cc2C1=O`, the T/C reads like this: under setting [2], 99 % of control and 98 % of control; under setting [3], 105 % of control; under setting [4], 118 % of control and 89 % of control.

As for `O=S(=O)(Cl)C(F)(F)C(F)(F)F`, the T/C is 100 % of control under setting [1], 110 % of control under setting [5] and 103 % of control under setting [6].

Consider `Cc1c(C#N)c(=O)[nH]c2ccc([N+](=O)[O-])cc12`, for which the T/C was 94 % of control under setting [7], 93 % of control under setting [8] and 100 % of control under setting [9].

On to `CNC(=O)OCc1nc(SC)n(C)c1COC(=O)NC`, for which the T/C by setting is: under setting [10], 160 % of control; (dose: 30.0 mg/kg/injection, schedule: Q01DX005 (ip), vehicle: saline) 166 % of control and 172 % of control and 187 % of control; (dose: 34.0 mg/kg/injection, schedule: Q01DX005 (ip), vehicle: saline) 158 % of control and 164 % of control and 173 % of control; under setting [11], 184 % of control and 193 % of control; (dose: 51.0 mg/kg/injection, schedule: Q01DX005 (ip), vehicle: saline) 186 % of control and 196 % of control and 200 % of control; (dose: 77.0 mg/kg/injection, schedule: Q01DX005 (ip), vehicle: saline) 188 % of control. For the setting “dose: 100.0 mg/kg/injection, schedule: Q01DX005 (ip), vehicle: saline”, the T/C was 236 % of control.

Take `O=C1OCC2=Nc3cccc4cccc(c34)N12`: the T/C was 101 % of control under setting [12]; 94 % of control under setting [13]; 98 % of control (dose: 200.0 mg/kg/injection, schedule: Q01DX005 (ip), vehicle: Klucel (hydroxypropylcellulose) (HPC)).

Turning to `CC(Nc1cccc(Cl)c1)S(=O)(=O)O` (stereo unspecified), the T/C is 100 % of control under setting [1], 100 % of control under setting [5] and 94 % of control under setting [6].

In the case of `CCCCNC(=O)Oc1ccc(OCc2ccccc2)cc1`, the T/C is, setting by setting: (dose: 100.0 mg/kg/injection, schedule: Q04DX003 (ip), vehicle: saline with Tween-80) 100 % of control; (dose: 200.0 mg/kg/injection, schedule: Q04DX003 (ip), vehicle: saline with Tween-80) 95 % of control; (dose: 400.0 mg/kg/injection, schedule: Q04DX003 (ip), vehicle: saline with Tween-80) 90 % of control.

For the compound `CCOC(=O)CSc1ccccc1`, the T/C under setting [1] is 100 % of control; the T/C under setting [5] is 98 % of control; the T/C under setting [6] was 100 % of control; the T/C (dose: 400.0 mg/kg/injection, schedule: Q01DX009 (ip), vehicle: saline) is 100 % of control.

In the case of `[CH3][Sn]([CH3])([N]=C=S)[N]=C=S.c1ccc(-c2nnc(-c3ccccn3)nc2-c2ccccc2)cc1`, the T/C reads like this: under setting [14], 100 % of control; under setting [15], 104 % of control.

Consider `CCOC(=O)/C(C#N)=C/Nc1ccncc1`, for which the T/C is 95 % of control (dose: 50.0 mg/kg/injection, schedule: Q01DX009 (ip), vehicle: saline with Tween-80) and 87 % of control under setting [16].

In the case of `COc1cc(/C=N/n2c(-c3ccccc3)nc3ccccc3c2=O)cc(Br)c1O`, the T/C by setting is: under setting [14], 89 % of control; under setting [15], 87 % of control; under setting [17], 87 % of control.

As to `CCOC(=O)c1c(C)c(C(C)=O)c2ccccn12`, the T/C is 104 % of control under setting [7], 119 % of control under setting [8] and 105 % of control under setting [9].

For `O=C(O)CCCCCCCCCOC(C[N+](=O)[O-])C(Cl)(Cl)Cl` (stereo unspecified), the T/C reads like this: (dose: 50.0 mg/kg/injection, schedule: Q01DX009 (ip), vehicle: other) 102 % of control; (dose: 100.0 mg/kg/injection, schedule: Q01DX009 (ip), vehicle: other) 103 % of control; (dose: 200.0 mg/kg/injection, schedule: Q01DX009 (ip), vehicle: other) 113 % of control.

As for `O=C1c2ccccc2-c2cn(-c3ccccc3)c3cccc1c23`, the T/C was 103 % of control under setting [12] and 100 % of control under setting [13].

Consider `CCn1nc(C(=O)O)c(=O)c2cc3c(cc21)OCO3`, for which the T/C by setting is: under setting [2], 96 % of control; under setting [3], 97 % of control; under setting [4], 98 % of control.

Consider `Cc1cc(O)ccc1Nc1ccc(N(CCCl)CCCl)cc1`, for which the T/C runs as follows: (dose: 200.0 mg/kg/injection, schedule: Q04DX003 (ip), vehicle: Klucel (hydroxypropylcellulose) (HPC)) 166 % of control; (dose: 400.0 mg/kg/injection, schedule: Q04DX003 (ip), vehicle: Klucel (hydroxypropylcellulose) (HPC)) 154 % of control.

As for `COC(=O)CC(NC(=O)C1CCCN1C(=O)C(F)(F)F)C(=O)OC` (stereo not drawn) (Tfa-Pro-Asp(OMe)-OMe; configuration not given here), the T/C is, setting by setting: (dose: 100.0 mg/kg/injection, schedule: Q01DX001 (ip), vehicle: saline with Tween-80) 104 % of control; (dose: 200.0 mg/kg/injection, schedule: Q01DX001 (ip), vehicle: saline with Tween-80) 101 % of control and 100 % of control; (dose: 400.0 mg/kg/injection, schedule: Q01DX001 (ip), vehicle: saline with Tween-80) 104 % of control.

For `O=C(OCCOCCN1CCCCC1)C1c2ccccc2Sc2ccc(Cl)cc21` (stereo unspecified), the T/C (dose: 12.5 mg/kg/injection, schedule: Q01DX005 (ip), vehicle: saline) is 100 % of control; the T/C under setting [10] is 105 % of control; the T/C under setting [11] is 100 % of control and 98 % of control.

For the compound `CC(=O)C1C(=O)C=C(C)OC1=O.CC(=O)C1C(=O)C=C(C)OC1=O.[Hg]` (stereo unspecified), the T/C was 88 % of control (dose: 1.56 mg/kg/injection, schedule: Q01DX009 (ip), vehicle: Klucel (hydroxypropylcellulose) (HPC)); 101 % of control (dose: 3.12 mg/kg/injection, schedule: Q01DX009 (ip), vehicle: Klucel (hydroxypropylcellulose) (HPC)); 91 % of control and 93 % of control (dose: 6.25 mg/kg/injection, schedule: Q01DX009 (ip), vehicle: Klucel (hydroxypropylcellulose) (HPC)).

Regarding `CC(=O)C1C(=O)C(=O)N(c2ccc(Cl)cc2)C1=O` (stereo unspecified), the T/C is, setting by setting: under setting [2], 101 % of control; under setting [3], 96 % of control; under setting [4], 104 % of control.

In the case of `CC(=O)N1c2ccccc2C23CCN(C)CC4C(C)OCC(C4CC2=O)C13` (stereo unspecified), the T/C (dose: 2.0 mg/kg/injection, schedule: Q01DX009 (ip), vehicle: Klucel (hydroxypropylcellulose) (HPC)) was 100 % of control; the T/C (dose: 4.0 mg/kg/injection, schedule: Q01DX009 (ip), vehicle: Klucel (hydroxypropylcellulose) (HPC)) was 95 % of control; the T/C (dose: 8.0 mg/kg/injection, schedule: Q01DX009 (ip), vehicle: Klucel (hydroxypropylcellulose) (HPC)) was 98 % of control; the T/C (dose: 16.0 mg/kg/injection, schedule: Q01DX009 (ip), vehicle: Klucel (hydroxypropylcellulose) (HPC)) is 100 % of control; the T/C (dose: 32.0 mg/kg/injection, schedule: Q01DX009 (ip), vehicle: Klucel (hydroxypropylcellulose) (HPC)) is 100 % of control.

As to `CCCn1c(O)c(C=N)c(=O)[nH]c1=O`, the T/C by setting is: under setting [16], 87 % of control; (dose: 200.0 mg/kg/injection, schedule: Q01DX009 (ip), vehicle: saline with Tween-80) 95 % of control.

On to `CCOC(CSc1ncnc2nc[nH]c12)OCC`, for which the T/C is, setting by setting: under setting [1], 100 % of control; under setting [5], 96 % of control; under setting [6], 112 % of control.

On to `CCCCNC=C1C(=O)Nc2ccccc2NC1=O`, for which the T/C is, setting by setting: under setting [14], 98 % of control; under setting [15], 92 % of control; under setting [17], 91 % of control.
